According to ChEMBL document CHEMBL2010656, “Design, synthesis and evaluation of isaindigotone derivatives as dual inhibitors for acetylcholinesterase and amyloid beta aggregation” (Bioorg Med Chem, 2012):
Activity calls are given as the source filed them. The calls are words filed in the database; no cut-off is given here.

Tests used:
[1] = Inhibition of amyloid beta (1 to 40) self-mediated aggregation at 10 uM after 72 hrs by thioflavin T based fluorometric assay relative to control
Acetylcholinesterase = Acetylcholinesterase (Electrophorus electricus, UniProt O42275)
Description: Inhibition of electric eel acetylcholinesterase using acetylcholine chloride as substrate preincubated for 15 mins before substrate addition by Ellman's method

Cholinesterase = Cholinesterase (Equus caballus, UniProt P81908)
Description: Inhibition of equine serum butyrylcholinesterase using butyrylthiocholine chloride as substrate preincubated for 15 mins before substrate addition by Ellman's method

[2] = biological target: Acetylcholinesterase (Electrophorus electricus) (UniProt O42275); test: Mixed type inhibition of electric eel acetylcholinesterase preincubated for 15 mins by Lineweaver-Burk plot analysis
[3] = Inhibition of amyloid beta (1 to 40) self-mediated aggregation assessed as reduction in beta-sheet structure formation at 20 uM after 3 days by CD spectropolarimetric analysis
[4] = Inhibition of amyloid beta (1 to 40) self-mediated aggregation assessed as inhibition of extended fibrils formation at 10 uM after 4 days by transmission electron microscopic analysis
[5] = Inhibition of amyloid beta (1 to 40) self-mediated aggregation assessed as change in alpha-helix structure formation at 20 uM after 3 days by CD spectropolarimetric analysis

Acetylcholinesterase, sequence (O42275 whole entry): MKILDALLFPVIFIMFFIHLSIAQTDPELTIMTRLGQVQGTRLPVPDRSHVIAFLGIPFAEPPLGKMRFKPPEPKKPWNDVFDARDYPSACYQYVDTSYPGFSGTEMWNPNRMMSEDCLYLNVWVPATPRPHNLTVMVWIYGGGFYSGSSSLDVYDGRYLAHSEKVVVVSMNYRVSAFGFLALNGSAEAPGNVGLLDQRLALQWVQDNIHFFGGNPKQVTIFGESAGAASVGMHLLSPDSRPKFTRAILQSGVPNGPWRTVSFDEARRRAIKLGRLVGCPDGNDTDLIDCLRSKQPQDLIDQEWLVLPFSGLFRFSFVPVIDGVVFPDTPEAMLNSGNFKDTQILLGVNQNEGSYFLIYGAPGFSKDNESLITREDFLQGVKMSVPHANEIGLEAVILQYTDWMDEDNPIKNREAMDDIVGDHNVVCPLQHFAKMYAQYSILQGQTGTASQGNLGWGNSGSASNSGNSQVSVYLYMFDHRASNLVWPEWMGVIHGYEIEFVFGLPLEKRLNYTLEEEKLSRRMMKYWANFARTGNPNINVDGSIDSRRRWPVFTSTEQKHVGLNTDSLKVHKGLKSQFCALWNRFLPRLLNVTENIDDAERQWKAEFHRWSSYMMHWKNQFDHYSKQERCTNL
Cholinesterase, sequence (P81908 whole entry): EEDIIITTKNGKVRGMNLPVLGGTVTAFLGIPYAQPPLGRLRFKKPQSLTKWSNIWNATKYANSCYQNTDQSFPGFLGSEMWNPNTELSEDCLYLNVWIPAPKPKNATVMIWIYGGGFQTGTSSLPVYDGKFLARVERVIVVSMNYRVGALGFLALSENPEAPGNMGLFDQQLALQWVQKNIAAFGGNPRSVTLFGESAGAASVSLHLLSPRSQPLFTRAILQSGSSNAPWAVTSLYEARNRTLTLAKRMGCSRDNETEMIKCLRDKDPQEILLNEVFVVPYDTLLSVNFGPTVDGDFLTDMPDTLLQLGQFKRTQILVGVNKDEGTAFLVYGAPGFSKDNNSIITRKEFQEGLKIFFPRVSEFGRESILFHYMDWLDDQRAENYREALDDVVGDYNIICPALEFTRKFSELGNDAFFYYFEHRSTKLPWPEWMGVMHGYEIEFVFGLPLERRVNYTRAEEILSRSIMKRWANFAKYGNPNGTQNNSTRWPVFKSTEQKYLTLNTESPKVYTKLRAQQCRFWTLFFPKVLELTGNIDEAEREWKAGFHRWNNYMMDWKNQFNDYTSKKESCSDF
Acetylcholinesterase (Electrophorus electricus), sequence (O42275 24-633 limits assumed): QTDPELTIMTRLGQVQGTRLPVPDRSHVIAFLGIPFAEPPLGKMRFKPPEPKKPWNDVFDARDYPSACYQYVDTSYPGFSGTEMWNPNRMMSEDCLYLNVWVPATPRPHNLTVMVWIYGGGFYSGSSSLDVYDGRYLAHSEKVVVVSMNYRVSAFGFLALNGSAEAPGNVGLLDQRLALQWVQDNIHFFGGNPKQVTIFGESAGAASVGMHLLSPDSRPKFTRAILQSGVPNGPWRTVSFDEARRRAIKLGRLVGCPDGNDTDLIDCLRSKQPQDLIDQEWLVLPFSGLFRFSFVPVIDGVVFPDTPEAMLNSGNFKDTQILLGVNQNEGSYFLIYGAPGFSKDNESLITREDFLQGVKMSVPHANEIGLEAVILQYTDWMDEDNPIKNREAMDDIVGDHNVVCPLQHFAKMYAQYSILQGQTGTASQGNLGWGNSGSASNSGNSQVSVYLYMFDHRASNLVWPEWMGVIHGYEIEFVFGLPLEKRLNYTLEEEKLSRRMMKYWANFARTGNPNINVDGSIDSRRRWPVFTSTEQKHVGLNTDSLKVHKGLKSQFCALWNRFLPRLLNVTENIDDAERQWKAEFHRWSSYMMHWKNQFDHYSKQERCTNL

SMILES | inhibition [1] [%] | IC50 (Acetylcholinesterase) [µM] | IC50 (Cholinesterase) [µM] | inhibition [2] | inhibition [3] | inhibition [4] | inhibition [5]
COc1cc(/C=C/C(=O)CC(=O)/C=C/c2ccc(O)c(OC)c2)ccc1O | 48.8 |  |  |  |  |  | 
CCN(CC)CCC(=O)Nc1ccc(/C=C2\CCCn3c2nc2cc(Cl)ccc2c3=O)cc1 | 54.8 | > 1 | 2.34 |  |  |  | 
O=C(NCCCN1CCCC1)c1ccc(/C=C2\CCn3c2nc2cc(Cl)ccc2c3=O)cc1 | 36.2 | 1.44 | 0.61 |  |  |  | 
O=C(CCN1CCCCC1)Nc1ccc(/C=C2\CCn3c2nc2cc(Cl)ccc2c3=O)cc1 | 49.8 | 0.023 | 2.88 |  |  |  | 
CN(C)CCCNC(=O)c1ccc(/C=C2\CCCn3c2nc2cc(Cl)ccc2c3=O)cc1 | 49.8 | 2.05 | 6.64 |  |  |  | 
CN(C)CCNC(=O)c1ccc(/C=C2\CCCn3c2nc2cc(Cl)ccc2c3=O)cc1 | 54.5 | 0.36 | > 40 |  |  |  | 
O=C(CC[n+]1ccccc1)Nc1ccc(/C=C2\CCn3c2nc2cc(Cl)ccc2c3=O)cc1 | 49 | 0.049 | 1.7 |  |  |  | 
O=C(NCCN1CCCC1)c1ccc(/C=C2\CCCn3c2nc2cc(Cl)ccc2c3=O)cc1 | 53.6 | 1.51 | 6.75 |  |  |  | 
O=C(CCN1CCCC1)Nc1ccc(/C=C2\CCn3c2nc2cc(Cl)ccc2c3=O)cc1 | 62.3 | 0.041 | 3.82 | Active | Active | Active | inactive
O=C(CC[n+]1ccccc1)Nc1ccc(/C=C2\CCCn3c2nc2cc(Cl)ccc2c3=O)cc1 | 33 | 0.82 | 3.38 |  |  |  | 
CN(C)CCCNC(=O)c1ccc(/C=C2\CCn3c2nc2cc(Cl)ccc2c3=O)cc1 | 56.5 | 1.42 | 5.18 |  |  |  | 
O=C(CCN1CCCCC1)Nc1ccc(/C=C2\CCCn3c2nc2cc(Cl)ccc2c3=O)cc1 | 52.9 | 0.031 | 5.99 |  |  |  | 
CN(C)CCNC(=O)c1ccc(/C=C2\CCn3c2nc2cc(Cl)ccc2c3=O)cc1 | 36.8 | 0.16 | > 20 |  |  |  | 
O=C(NCCCN1CCCC1)c1ccc(/C=C2\CCCn3c2nc2cc(Cl)ccc2c3=O)cc1 | 53.3 | 1.21 | 0.5 |  |  |  | 
CCN(CC)CCC(=O)Nc1ccc(/C=C2\CCn3c2nc2cc(Cl)ccc2c3=O)cc1 | 39 | 0.06 | 6.44 |  |  |  | 
O=C(CCN1CCCC1)Nc1ccc(/C=C2\CCCn3c2nc2cc(Cl)ccc2c3=O)cc1 | 53.5 | > 1 | 6.45 |  |  |  | 
O=C(NCCN1CCCC1)c1ccc(/C=C2\CCn3c2nc2cc(Cl)ccc2c3=O)cc1 | 57.4 | 0.045 | 11.1 |  |  |  | 
